Results taken from US20240325394A1, “SALT AND CRYSTAL FORM OF NITROGEN-CONTAINING HETEROCYCLIC DERIVATIVE, PREPARATION METHOD THEREFOR AND APPLICATION THEREOF” (SHANGHAI HANSOH BIOMEDICAL CO., LTD., priority 2020, published 2024).
Structures can show the parent of a compound that is named as a salt.

How the values were obtained:
[1] = Thermodynamic solubility in different media (FaSSGF, FaSSIF, FeSSIF, water) at 37° C.; format: physicochemical; details: 24 hours
[2] = Solid stability (10 days), impurity increase by HPLC; format: physicochemical
human KRAS G12C protein = target: T1, human KRAS G12C protein (Homo sapiens, UniProt P01116, G12C); experiment: Thermal shift: melting temperature of KRAS G12C protein; format: binding; details: KRAS G12C protein 5.37 μM with compound 10 μM, 1 hour
T1 construct: purchased Beijing SinoBiological Co., Ltd. 12259-H07E2
Description: In this experiment, the thermal shift method was used to test the degree of change in the melting temperature (Tm) of the KRAS G12C protein before and after the binding of the compound, in order to characterize the ability of the compound to improve the stability of the KRAS G12C protein.
The specific experiment operation was as follows: • A solution containing […] (pH 7.5), 1 mM DTT, 5× SYPRO Orange and 150 mM NaCl was prepared as the experimental buffer, and a final concentration of 5.37 μM human KRAS G12C protein was added thereto. The reaction mixture was divided into 8 rows of PCR tubes, each 19.5 μL, and 0.5 μL of the test compound or DMSO were added respectively, so that the total reaction system was 20 μL, the final concentration of the compound was 10 μM, and 2.5% DMSO was set as the solvent control. After incubating at room temperature in the dark for 1 hour, the PCR tube was put into the PCR instrument, QuantStudio Software v1.3 was opened, and the melting temperature of KRAS G12C protein in different treatment groups was detected by melt curve function (heating from 25° C. to 95° C., 0.03° C./s).
The experimental data file of PCR instrument was imported into thermal shift software, and the melting temperature (Tm) of each treatment group was obtained, and the change value of melting temperature (ATm) was obtained by subtracting the Tm of DMSO solvent control group.

[3] = Solid stability of crystal form, XRPD after stress conditions; format: physicochemical
[4] = Plasma stability, mouse plasma; format: in vitro ADME; details: mouse
Description: (§1) Animal or human whole blood was collected, then the blood was put into a test tube containing anticoagulant, centrifuged at 3500 rpm for 10 min, and the upper layer of pale yellow plasma was collected. • 2) 10 μM of tested compound (m/M/V=C)
(§2) The compound was weighed, the stock solution was prepared with DMSO and the working solution was prepared with 100 mM phosphate buffer. • 3) 10 μM of positive control • (1) Propantheline (Propantheline Mr=449.4 Da)
(§3) • 1) 285 μL of plasma and 15 μL of 10 μM compound (tested compound) were added in turn in a 96-well plate, and incubated at 37° C. • 2) 40 μL was taken out at 0, 15, 30, 60, 90, 120 min, respectively, and 160 μL of acetonitrile termination solution containing internal standard was added. • 3) After centrifugation (3500 rpm, 10 min), 50 μL of supernatant was taken out, and then diluted with 50 μL DDH2O and injected to LC-MS/MS.
(§4) • instrument: Shimadzu LC-20 AD • chromatographic column: phenomenex Gemiu® C18 (50*4.6 mm, 5 μM particle size); • mobile phase: A: acetonitrile, B: 0.1% formic acid solution 0-8 min: 5% A→95% A, 2.0-2.1 min: 90% A→5% A; flow rate: 0.8 mL/min; running time: 5.0 min; injection volume: 5 μL.
(§5) • instrument: API4000 Liquid Chromatography-Mass Spectrometry, AB, USA; • the ion source was electrospray ionization source (ESI); • the temperature of dry gas (N2) was 500° C.; • electrospray voltage was 5500V; • the detection method was positive ion detection; • the scanning mode was selective response monitoring (MRM); • the scanning time was 0.1 s.

[5] = Plasma stability, human plasma; format: in vitro ADME; details: human
Description: as §1, §2, §3, §4, §5

[6] = Plasma stability, dog plasma; format: in vitro ADME; details: dog plasma, 37° C.
Description: as §1, §2, §3, §4, §5

[7] = Plasma stability, rat plasma; format: in vitro ADME; details: rat plasma, 37° C.
Description: as §1, §2, §3, §4, §5

SMILES: C=CC(=O)N1C[C@H](C)N(c2nc(=O)n(-c3c(SC)ccnc3C(C)C)c3nc(-c4c(N)ccc(Cl)c4F)c(Cl)cc23)C[C@H]1C [crystal form II of sulfate, P-4-((2S,5R)-4-acryloyl-2,5-dimethylpiperazin-1-yl)-7-(6-amino-3-chloro-2-fluorophenyl)-6-chloro-1-(2-isopropyl-4-(methylthio)pyridin-3-yl)pyrido[2,3-d]pyrimidin-2(1H)-one]
- Solubility ([1]; FaSSGF): 386.5 µg/mL
- Solubility ([1]; FaSSIF): 150.3 µg/mL
- Solubility ([1]; FeSSIF): 383.5 µg/mL
- Solubility ([1]; H2O): 13.2 µg/mL
- Stability of solid (10 days) (impurity increase %) ([2]; 50° C. & 75% RH, HPLC peak area normalization): 0.15%
- Stability of solid (10 days) (impurity increase %) ([2]; 60° C., HPLC peak area normalization): 0.91%
- Stability of solid (10 days) (impurity increase %) ([2]; 92.5% RH, HPLC peak area normalization): 0.56%
- Stability of solid (10 days) (impurity increase %) ([2]; Light (5000±500 lux), HPLC peak area normalization): 1.12%
- Solid stability (in words) ([2]; light, high humidity, high temperature and high humidity conditions): relatively stable

SMILES: C=CC(=O)N1CCN(c2nc(=O)n(-c3c(SC)ccnc3C(C)C)c3nc(-c4c(O)cccc4F)c(F)cc23)[C@@H](C)C1 [Embodiment 1, 4-((S)-4-Acryloyl-2-methylpiperazin-1-yl)-6-fluoro-7-(2-fluoro-6-hydroxyphenyl)-1-(2-isopropyl-4-(methylthio)pyridin-3-yl)pyrido[2,3-d]pyrimidin-2(1H)-one]
- Tm (human KRAS G12C protein): 60.2 °C

SMILES: C=CC(=O)N1C[C@H](C)N(c2nc(=O)n(-c3c(SC)ccnc3C(C)C)c3nc(-c4c(N)ccc(Cl)c4F)c(Cl)cc23)C[C@H]1C [Crystal form I of hydroxyethyl sulfonate, P-4-((2S,5R)-4-acryloyl-2,5-dimethylpiperazin-1-yl)-7-(6-amino-3-chloro-2-fluorophenyl)-6-chloro-1-(2-isopropyl-4-(methylthio)pyridin-3-yl)pyrido[2,3-d]pyrimidin-2(1H)-one]
- Crystal form of hydroxyethyl sulfonate (XRPD) ([3]; High humidity (25° C., 75%, 10 days)): Crystal form I
- Crystal form of hydroxyethyl sulfonate (XRPD) ([3]; High humidity (25° C., 90%, 10 days)): Crystal form I
- Crystal form of hydroxyethyl sulfonate (XRPD) ([3]; High temperature (40° C., 30 days)): Crystal form I
- Crystal form of hydroxyethyl sulfonate (XRPD) ([3]; High temperature (60° C., 30 days)): Crystal form I
- Crystal form of hydroxyethyl sulfonate (XRPD) ([3]; Initial crystal form): Crystal form I
- Crystal form of hydroxyethyl sulfonate (XRPD) ([3]; Light (≥1.2 × 10^6 lux-h, 10 days)): Crystal form I
- Crystal form of hydroxyethyl sulfonate (XRPD) ([3]; Micropowder): Crystal form I
- Solid stability (in words) ([3]; light, high humidity, high temperature, and micropowder conditions): relatively stable
- Solubility ([1]; FaSSGF): 314.6 µg/mL
- Solubility ([1]; FaSSIF): 158.8 µg/mL
- Solubility ([1]; FeSSIF): 347.3 µg/mL
- Solubility ([1]; H2O): 7.4 µg/mL
- Stability of solid (10 days) (impurity increase %) ([2]; 50° C. & 75% RH): 0.30%
- Stability of solid (10 days) (impurity increase %) ([2]; 60° C.): 0.26%
- Stability of solid (10 days) (impurity increase %) ([2]; 92.5% RH): 0.01%
- Stability of solid (10 days) (impurity increase %) ([2]; Light (5000±500 lux)): 0.27%

SMILES: CC(C)[N+](C)(CCOC(=O)C1c2ccccc2Oc2ccccc21)C(C)C [Propantheline, reference compound]
- Residual rate (%) 0 min ([4]; 0 min, 0.5 μM): 100.00%
- Residual rate (%) 15 min ([4]; 15 min, 0.5 μM): 79.79%
- Residual rate (%) 30 min ([4]; 30 min, 0.5 μM): 48.66%
- Residual rate (%) 60 min ([4]; 60 min, 0.5 μM): 23.39%
- Residual rate (%) 120 min ([4]; 120 min, 0.5 μM): 6.66%
- half-life at 0.5 μM ([4]; plasma): 27.7 min
- Residual rate (%) 0 min ([5]; 0 min, 0.5 μM): 100.00%
- Residual rate (%) 15 min ([5]; 15 min, 0.5 μM): 79.98%
- Residual rate (%) 30 min ([5]; 30 min, 0.5 μM): 50.52%
- Residual rate (%) 60 min ([5]; 60 min, 0.5 μM): 14.65%
- Residual rate (%) 120 min ([5]; 120 min, 0.5 μM): 0.72%
- half-life at 0.5 μM ([5]; plasma): 21 min

SMILES: C=CC(=O)N1CCN(c2nc(=O)n(-c3c(SC)ccnc3C(C)C)c3nc(-c4c(N)ccc(Cl)c4F)c(Cl)cc23)[C@@H](C)C1 [Embodiment 9, 4-((S)-4-acryloyl-2-methylpiperazin-1-yl)-7-(6-amino-3-chloro-2-fluorophenyl)-6-chloro-1-(2-isopropyl-4-(methylthio)pyridin-3-yl)pyrido[2,3-d]pyrimidin-2(1H)-one]
- Tm (human KRAS G12C protein): 60.2 °C

SMILES: C=CC(=O)N1C[C@H](C)N(c2nc(=O)n(-c3c(SC)ccnc3C(C)C)c3nc(-c4c(O)cccc4F)c(F)cc23)C[C@H]1C [Embodiment 2, 4-((2S,5R)-4-acryloyl-2,5-dimethylpiperazin-1-yl)-6-fluoro-7-(2-fluoro-6-hydroxyphenyl)-1-(2-isopropyl-4-(methylthio)pyridin-3-yl)pyrido[2,3-d]pyrimidin-2(1H)-one]
- Tm (human KRAS G12C protein): 57.2 °C

SMILES: C=CC(=O)N1CCN(c2nc(=O)n(-c3c(SC)ccnc3C(C)C)c3nc(-c4c(N)cccc4F)c(F)cc23)[C@@H](C)C1 [Embodiment 5, 4-((S)-4-acryloyl-2-methylpiperazin-1-yl)-7-(2-amino-6-fluorophenyl)-6-fluoro-1-(2-isopropyl-4-(methylthio)pyridin-3-yl)pyrido[2,3-d]pyrimidin-2(1H)-one]
- Tm (human KRAS G12C protein): 64.4 °C

SMILES: C=CC(=O)N1C[C@H](C)N(c2nc(=O)n(-c3c(SC)ccnc3C(C)C)c3nc(-c4c(N)ccc(Cl)c4F)c(Cl)cc23)C[C@H]1C [Embodiment 13, 4-((2S,5R)-4-acryloyl-2,5-dimethylpiperazin-1-yl)-7-(6-amino-3-chloro-2-fluorophenyl)-6-chloro-1-(2-isopropyl-4-(methylthio)pyridin-3-yl)pyrido[2,3-d]pyrimidin-2(1H)-one]
- Tm (human KRAS G12C protein): 58.0 °C

SMILES: CC[C@H](C)C(=O)O[C@H]1C[C@@H](C)C=C2C=C[C@H](C)[C@H](CC[C@@H]3C[C@@H](O)CC(=O)O3)[C@H]21 [Lovastatin, reference compound]
- t1/2 [6]: 80.22 min
- Residual rate (%) 0 min ([6]; 0 min): 100.00%
- Residual rate (%) 15 min ([6]; 15 min): 95.25%
- Residual rate (%) 30 min ([6]; 30 min): 95.45%
- Residual rate (%) 60 min ([6]; 60 min): 75.66%
- Residual rate (%) 120 min ([6]; 120 min): 36.25%
- t1/2 [7]: 6.69 min
- Residual rate (%) 0 min ([7]; 0 min): 100.00%
- Residual rate (%) 15 min ([7]; 15 min): 21.15%
- Residual rate (%) 30 min ([7]; 30 min): 1.77%
- Residual rate (%) 60 min ([7]; 60 min): 0.36%
- Residual rate (%) 120 min ([7]; 120 min): 0.30%
